Reference: the NIST ThermoML archive (doi:10.1021/je301347v)
± gives the expanded uncertainty stated by the source.

Settings: 101 kPa, Liquid, Voltage change across transformer (no electrode)

electrical conductivity (293.15 K) | electrical conductivity (303.15 K) | electrical conductivity (313.15 K) | electrical conductivity (323.15 K) | Compound
0.1318 ± 0.0013 S/m | 0.254 ± 0.003 S/m | 0.439 ± 0.004 S/m | 0.687 ± 0.007 S/m | CCCC[n+]1ccc(C)cc1.F[B-](F)(F)F [1-butyl-4-methylpyridinium tetrafluoroborate]
0.155 ± 0.0016 S/m | 0.281 ± 0.003 S/m | 0.461 ± 0.005 S/m | 0.704 ± 0.007 S/m | CCCC[n+]1cccc(C)c1.F[B-](F)(F)F [1-butyl-3-methylpyridinium tetrafluoroborate]
0.181 ± 0.0036 S/m | 0.321 ± 0.006 S/m | 0.519 ± 0.01 S/m | 0.785 ± 0.016 S/m | CCCC[n+]1ccccc1.F[B-](F)(F)F [1-butylpyridinium tetrafluoroborate]
